{"source": "ChEMBL document CHEMBL1201862", "about": "“PubChem BioAssay data set” (2004)", "assay_in_all_cases": "NCI tumour cell line growth inhibition, 48 h", "key": {"PC-3": {"test_system": "PC-3"}, "RXF 393": {"test_system": "RXF 393"}, "SK-MEL-5": {"test_system": "SK-MEL-5"}, "M19-MEL": {"test_system": "M19-MEL"}, "KM-20L2": {"test_system": "KM-20L2"}, "HL-60": {"test_system": "HL-60"}, "MDA-MB-435": {"test_system": "MDA-MB-435"}, "HCC 2998": {"test_system": "HCC 2998"}, "NCI-H226": {"test_system": "NCI-H226"}, "OVCAR-4": {"test_system": "OVCAR-4"}, "CAKI-1": {"test_system": "CAKI-1"}, "UACC-62": {"test_system": "UACC-62"}, "HOP-18": {"test_system": "HOP-18"}, "DU-145": {"test_system": "DU-145"}, "SK-MEL-28": {"test_system": "SK-MEL-28"}, "LOX IMVI": {"test_system": "LOX IMVI"}, "HOP-62": {"test_system": "HOP-62"}, "UACC-257": {"test_system": "UACC-257"}, "UO-31": {"test_system": "UO-31"}, "MCF7": {"test_system": "MCF7"}, "MDA-MB-231": {"test_system": "MDA-MB-231"}, "SW-620": {"test_system": "SW-620"}, "OVCAR-8": {"test_system": "OVCAR-8"}, "KM12": {"test_system": "KM12"}, "CCRF-CEM": {"test_system": "CCRF-CEM"}, "NCI-H522": {"test_system": "NCI-H522"}, "A549": {"test_system": "A549"}, "XF498": {"test_system": "XF498"}, "RPMI-8226": {"test_system": "RPMI-8226"}, "Hs-578T": {"test_system": "Hs-578T"}, "A498": {"test_system": "A498"}, "K562": {"test_system": "K562"}, "SN12C": {"test_system": "SN12C"}, "T47D": {"test_system": "T47D"}, "COLO 205": {"test_system": "COLO 205"}, "U-251": {"test_system": "U-251"}, "SF-295": {"test_system": "SF-295"}, "OVCAR-3": {"test_system": "OVCAR-3"}, "ACHN": {"test_system": "ACHN"}, "SF-268": {"test_system": "SF-268"}, "DLD-1": {"test_system": "DLD-1"}, "NCI-H23": {"test_system": "NCI-H23"}, "IGROV-1": {"test_system": "IGROV-1"}, "SK-MEL-2": {"test_system": "SK-MEL-2"}, "SF-539": {"test_system": "SF-539"}, "HCT-116": {"test_system": "HCT-116"}, "786-0": {"test_system": "786-0"}, "OVCAR-5": {"test_system": "OVCAR-5"}, "DMS-114": {"test_system": "DMS-114"}, "HCT-15": {"test_system": "HCT-15"}, "EKVX": {"test_system": "EKVX"}, "NCI-H460": {"test_system": "NCI-H460"}, "Malme-3M": {"test_system": "Malme-3M"}, "SNB-75": {"test_system": "SNB-75"}, "SNB-19": {"test_system": "SNB-19"}, "SK-OV-3": {"test_system": "SK-OV-3"}, "HT-29": {"test_system": "HT-29"}, "NCI/ADR-RES": {"test_system": "NCI/ADR-RES"}, "DMS-273": {"test_system": "DMS-273"}, "SNB-78": {"test_system": "SNB-78"}, "M14": {"test_system": "M14"}}, "note": "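Five compound concentrations were applied to cells in 96-well plates for 48 hours; endpoints were derived by simple linear interpolation of the resulting dose-response curve. GI50 = concentration required for 50% inhibition of growth.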 Calls of active or inactive are those of the source. No stated cut-off is given here; in the data, active = GI50 up to about 1.1 µM and inactive = higher. Where a SMILES comes first, the peptide text is derived from it. [ ]: non-standard residue; d: D form. 2Nal = N[CH](Cc1ccc2ccccc2c1)C(=O)O", "data": [{"smiles": "CC(NC(=O)C(N)Cc1ccccc1)C(=O)NC(Cc1ccc(O)cc1)C(=O)NC(Cc1c[nH]c2ccccc12)C(=O)NC(CCCCN)C(=O)NC(C(=O)NC(C)C(=O)NC(Cc1ccc2ccccc2c1)C(N)=O)C(C)C", "note": "(stereo unspecified) (H-FAYWKVA[2Nal]-NH2; configuration not given here)", "values": [{"measurement": "GI50", "setting": "PC-3", "result": "> 12.5 µM (inactive)"}, {"measurement": "GI50", "setting": "RXF 393", "result": "> 12.5 µM (inactive)"}, {"measurement": "GI50", "setting": "SK-MEL-5", "result": "> 12.5 µM (inactive)"}, {"measurement": "GI50", "setting": "M19-MEL", "result": "27 µM (inactive)"}, {"measurement": "GI50", "setting": "KM-20L2", "result": "27.1 µM (inactive)"}, {"measurement": "GI50", "setting": "HL-60", "result": "> 12.5 µM (inactive)"}, {"measurement": "GI50", "setting": "MDA-MB-435", "result": "> 12.5 µM (inactive)"}, {"measurement": "GI50", "setting": "HCC 2998", "result": "> 12.5 µM (inactive)"}, {"measurement": "GI50", "setting": "NCI-H226", "result": "> 12.5 µM (inactive)"}, {"measurement": "GI50", "setting": "OVCAR-4", "result": "> 12.5 µM (inactive)"}, {"measurement": "GI50", "setting": "CAKI-1", "result": "> 12.5 µM (inactive)"}, {"measurement": "GI50", "setting": "UACC-62", "result": "> 12.5 µM (inactive)"}, {"measurement": "GI50", "setting": "HOP-18", "result": "23.9 µM (inactive)"}, {"measurement": "GI50", "setting": "DU-145", "result": "> 12.5 µM (inactive)"}, {"measurement": "GI50", "setting": "SK-MEL-28", "result": "> 12.5 µM (inactive)"}, {"measurement": "GI50", "setting": "LOX IMVI", "result": "> 12.5 µM (inactive)"}, {"measurement": "GI50", "setting": "HOP-62", "result": "> 12.5 µM (inactive)"}, {"measurement": "GI50", "setting": "UACC-257", "result": "> 12.5 µM (inactive)"}, {"measurement": "GI50", "setting": "UO-31", "result": "> 12.5 µM (inactive)"}, {"measurement": "GI50", "setting": "MCF7", "result": "> 12.5 µM (inactive)"}, {"measurement": "GI50", "setting": "MDA-MB-231", "result": "> 12.5 µM (inactive)"}, {"measurement": "GI50", "setting": "SW-620", "result": "> 12.5 µM (inactive)"}, {"measurement": "GI50", "setting": "OVCAR-8", "result": "> 12.5 µM (inactive)"}, {"measurement": "GI50", "setting": "KM12", "result": "> 12.5 µM (inactive)"}, {"measurement": "GI50", "setting": "CCRF-CEM", "result": "> 12.5 µM (inactive)"}, {"measurement": "GI50", "setting": "NCI-H522", "result": "> 12.5 µM (inactive)"}, {"measurement": "GI50", "setting": "A549", "result": "> 12.5 µM (inactive)"}, {"measurement": "GI50", "setting": "XF498", "result": "21.4 µM (inactive)"}, {"measurement": "GI50", "setting": "RPMI-8226", "result": "> 12.5 µM (inactive)"}, {"measurement": "GI50", "setting": "Hs-578T", "result": "> 12.5 µM (inactive)"}, {"measurement": "GI50", "setting": "A498", "result": "> 12.5 µM (inactive)"}, {"measurement": "GI50", "setting": "K562", "result": "> 12.5 µM (inactive)"}, {"measurement": "GI50", "setting": "SN12C", "result": "> 12.5 µM (inactive)"}, {"measurement": "GI50", "setting": "T47D", "result": "> 12.5 µM (inactive)"}, {"measurement": "GI50", "setting": "COLO 205", "result": "> 12.5 µM (inactive)"}, {"measurement": "GI50", "setting": "U-251", "result": "> 12.5 µM (inactive)"}, {"measurement": "GI50", "setting": "SF-295", "result": "> 12.5 µM (inactive)"}, {"measurement": "GI50", "setting": "OVCAR-3", "result": "> 12.5 µM (inactive)"}, {"measurement": "GI50", "setting": "ACHN", "result": "> 12.5 µM (inactive)"}, {"measurement": "GI50", "setting": "SF-268", "result": "> 12.5 µM (inactive)"}, {"measurement": "GI50", "setting": "DLD-1", "result": "31.8 µM (inactive)"}, {"measurement": "GI50", "setting": "NCI-H23", "result": "> 12.5 µM (inactive)"}, {"measurement": "GI50", "setting": "IGROV-1", "result": "> 12.5 µM (inactive)"}, {"measurement": "GI50", "setting": "SK-MEL-2", "result": "> 12.5 µM (inactive)"}, {"measurement": "GI50", "setting": "SF-539", "result": "> 12.5 µM (inactive)"}, {"measurement": "GI50", "setting": "HCT-116", "result": "> 12.5 µM (inactive)"}, {"measurement": "GI50", "setting": "786-0", "result": "> 12.5 µM (inactive)"}, {"measurement": "GI50", "setting": "OVCAR-5", "result": "> 12.5 µM (inactive)"}, {"measurement": "GI50", "setting": "DMS-114", "result": "31.7 µM (inactive)"}, {"measurement": "GI50", "setting": "HCT-15", "result": "> 12.5", "unit": "µM"}, {"measurement": "GI50", "setting": "EKVX", "result": "> 12.5 µM (inactive)"}, {"measurement": "GI50", "setting": "NCI-H460", "result": "> 12.5 µM (inactive)"}, {"measurement": "GI50", "setting": "Malme-3M", "result": "> 12.5 µM (inactive)"}, {"measurement": "GI50", "setting": "SNB-75", "result": "28.1 µM (inactive)"}, {"measurement": "GI50", "setting": "SNB-19", "result": "24.6 µM (inactive)"}, {"measurement": "GI50", "setting": "SK-OV-3", "result": "> 12.5 µM (inactive)"}, {"measurement": "GI50", "setting": "HT-29", "result": "> 12.5 µM (inactive)"}, {"measurement": "GI50", "setting": "NCI/ADR-RES", "result": "> 12.5 µM (inactive)"}, {"measurement": "GI50", "setting": "DMS-273", "result": "24.6 µM (inactive)"}, {"measurement": "GI50", "setting": "SNB-78", "result": "44.3 µM (inactive)"}, {"measurement": "GI50", "setting": "M14", "result": "> 12.5 µM (inactive)"}]}]}
